# System: amphetamine-induced hyperlocomotion
# Test: Reversal of amphetamine-induced hyperlocomotion in rats
# Assay type: in vivo, male Sprague-Dawley rats
# Details: 10 mg/kg p.o.; amphetamine 1 mg/kg s.c.; intervals 13-24; rat
# Procedure: The study was carried out using male Sprague-Dawley rats weighing 225 g-275 g, between 2-3 months old (Harlan, Inc., Indianapolis, Ind.). They were kept in the animal care facility certified by the American Association for the Accreditation of Laboratory Animal Care (AALAC) under a 12-hour light/dark cycle (lights on: 6 a.m.; lights off: 6 p.m.) and had free access to food and water. The experimental protocols performed during the light cycle were approved by the Institutional Animals Care and Use Committee of Vanderbilt University and conformed to the guidelines established by the National Research Council Guide for the Care and Use of Laboratory Animals
# Locomotor activity was assessed as mean distance traveled (cm) in Smart Open Field locomotor activity test chambers (Hamilton-Kinder, San Diego, Calif.) with 16×16 photobeams with chambers measuring 43.2 cm (Length)×43.2 cm (Width)×30.5 cm (Height) (Med Associates, St. Albans, Vt.). The animals were habituated for 30 min and then dosed with vehicle or test compound. The rats were then placed into cages. At 60 min, all rats were injected subcutaneously with 1 mg/kg amphetamine or vehicle and then monitored for an additional 60 min. Animals are monitored for a total of 120 minutes.
# Data are expressed as the mean (±SEM) distance traveled recorded in 5 min intervals over the test period. The data was analyzed using repeated measures analysis of variance (ANOVA) followed by post-hoc testing using Dunnett's test, when appropriate. A difference was considered significant when p≦0.05. The data for the dose-response studies were analyzed by a between-group analysis of variance. If there was a main effect of dose, then each dose group was compared with the vehicle amphetamine group. The calculations were performed using JMP IN 8 (SAS Institute, Cary, N.C.) statistical software and graphed using SigmaPlot9 (Saugua, Mass.).
# Amphetamine sulfate was obtained from Sigma (Cat#A5880-1G; St. Louis, Mo.) and 10 mg was dissolved in 10 ml of water. […]
row,SMILES,% Reversal of amphetamine-induced hyperlocomotion [%]
1,"Cc1nc(N2CCn3nc(OCc4ccccc4)cc3C2=O)ccc1F [Example B17, 2-(benzyloxy)-5-(5-fluoro-6-methylpyridin-2-yl)-6,7-dihydropyrazolo[1,5-a]pyrazin-4(5H)-one]",14
2,"CN(C)c1cccc(N2CCn3nc(OCc4ccccc4)cc3C2=O)n1 [Example B15, 2-(benzyloxy)-5-(6-(dimethylamino)pyridin-2-yl)-6,7-dihydropyrazolo[1,5-a]pyrazin-4(5H)-one]",32
3,"O=C1c2cc(OCc3cccc(F)c3)nn2CCN1c1ccc(F)cc1 [Example B26, 2-((3-fluorobenzyl)oxy)-5-(4-fluorophenyl)-6,7-dihydropyrazolo[1,5-a]pyrazin-4(5H)-one]",25

# Molecular target: human mGluR5a receptor (Homo sapiens, UniProt P41594)
# Test: Cell-based functional assay (Ca2+ mobilization, FDSS), potentiation of glutamate EC20 response
# Details: H10H cell line; maximum % effect in the concentration-response curve as percent of maximal glutamate response; glutamate EC20
# From the text: Human mGluR5a cDNA in pCMV6-XL6 mammalian expression plasmid was purchased from OriGene Technologies, Inc. (catalogue number SC326357) and subcloned into pcDNA3.1(−). Human embryonic kidney (HEK)293A cells were then transfected with human mGluR5a pcDNA3.1(−) using LipofectAmine-2000 (Invitrogen) and monoclones were selected and tested for functional response using a Ca^2+ mobilization assay. Monoclones were named for the species (“H” for human) plus the location on the plate (e.g. “10H”).
# HEK cells transfected with the human mGluR5a receptor (H10H or H12H cell line) were plated at 15,000 cells/well in clear-bottomed poly-D-lysinecoated assay plates (BD Falcon) in glutamate-glutamine-free growth medium and incubated overnight at 37° C. and 5% CO2. Cell-lines used were either the H10H or H12H cell-lines expressing the human mGluR5 receptor. The following day, the growth medium was removed and the cells were washed with assay buffer containing 1× Hank's balanced salt solution (Invitrogen, Carlsbad, Calif.), 20 mM HEPES, 2.5 mM probenecid, pH 7.4 and left with 20 μL of this reagent. Following this step, the cells were loaded with calcium indicator dye, fluo-4 AM, to a final concentration of 2 μM and incubated for 40-45 min at 37° C. The dye solution was removed and replaced with assay buffer. Cell plates were held for 10-15 min at room temperature and were then loaded into the Functional Drug Screening System 6000 (FDSS 6000, Hamamatsu, Japan).
# After establishment of a fluorescence baseline for about 3 seconds, the compounds of the present invention were added to the cells, and the response in cells was measured. 2.3 minutes later an EC20 concentration of the mGluR5 receptor agonist glutamate was added to the cells, and the response of the cells was measured for about 1.7 minutes. All test compounds were dissolved and diluted to a concentration of 10 mM in 100% DMSO and then serially diluted into assay buffer for a 2× stock solution in 0.6% DMSO; stock compounds were then added to the assay for a final DMSO concentration of 0.3% after the first addition to the assay well. Calcium fluorescence measures were recorded as fold over basal fluorescence; raw data was then normalized to the maximal response to glutamate. Potentiation of the agonist response of the mGluR5 receptor in the present invention was observed as an increase in response to submaximal concentrations of glutamate in the presence of compound compared to the response to glutamate in the absence of compound.
# The concentration-response curves of compounds of the present invention, obtained in the presence of EC20 of mGluR5 receptor agonist glutamate to determine positive allosteric modulation, were generated using Microsoft Excel with IDBS XLFit add-ins. The raw data file containing all time points was used as the data source in the analysis template. This was saved by the FDSS as a tab-delimited text file. Data were normalized using a static ratio function (F/F0) for each measurement of the total 350 values per well divided by each well's initial value. Data was then reduced as to peak amplitudes (Max Initial Min) using a time range that starts approximately 1 second after the glutamate EC20 addition and continues for approximately 40 seconds. This is sufficient time to capture the peak amplitude of the cellular Calcium response. Individual amplitudes were expressed as % EMax by multiplying each amplitude by 100 and then dividing the product by the mean of the amplitudes derived from the glutamate ECMax-treated wells. pEC50 values for test compounds were generated by fitting the normalized values versus the log of the test compound concentration (in mol/L) using a 4 parameter logistic equation where none of the parameters were fixed. Each of the three values collected at each concentration of test compound were weighted evenly. Individual values falling outside the 95% prediction limits of the curve fit were automatically excluded from the fit. […]
# Sequence of human mGluR5a receptor (P41594 21-1180 isoform P41594-2 limits assumed): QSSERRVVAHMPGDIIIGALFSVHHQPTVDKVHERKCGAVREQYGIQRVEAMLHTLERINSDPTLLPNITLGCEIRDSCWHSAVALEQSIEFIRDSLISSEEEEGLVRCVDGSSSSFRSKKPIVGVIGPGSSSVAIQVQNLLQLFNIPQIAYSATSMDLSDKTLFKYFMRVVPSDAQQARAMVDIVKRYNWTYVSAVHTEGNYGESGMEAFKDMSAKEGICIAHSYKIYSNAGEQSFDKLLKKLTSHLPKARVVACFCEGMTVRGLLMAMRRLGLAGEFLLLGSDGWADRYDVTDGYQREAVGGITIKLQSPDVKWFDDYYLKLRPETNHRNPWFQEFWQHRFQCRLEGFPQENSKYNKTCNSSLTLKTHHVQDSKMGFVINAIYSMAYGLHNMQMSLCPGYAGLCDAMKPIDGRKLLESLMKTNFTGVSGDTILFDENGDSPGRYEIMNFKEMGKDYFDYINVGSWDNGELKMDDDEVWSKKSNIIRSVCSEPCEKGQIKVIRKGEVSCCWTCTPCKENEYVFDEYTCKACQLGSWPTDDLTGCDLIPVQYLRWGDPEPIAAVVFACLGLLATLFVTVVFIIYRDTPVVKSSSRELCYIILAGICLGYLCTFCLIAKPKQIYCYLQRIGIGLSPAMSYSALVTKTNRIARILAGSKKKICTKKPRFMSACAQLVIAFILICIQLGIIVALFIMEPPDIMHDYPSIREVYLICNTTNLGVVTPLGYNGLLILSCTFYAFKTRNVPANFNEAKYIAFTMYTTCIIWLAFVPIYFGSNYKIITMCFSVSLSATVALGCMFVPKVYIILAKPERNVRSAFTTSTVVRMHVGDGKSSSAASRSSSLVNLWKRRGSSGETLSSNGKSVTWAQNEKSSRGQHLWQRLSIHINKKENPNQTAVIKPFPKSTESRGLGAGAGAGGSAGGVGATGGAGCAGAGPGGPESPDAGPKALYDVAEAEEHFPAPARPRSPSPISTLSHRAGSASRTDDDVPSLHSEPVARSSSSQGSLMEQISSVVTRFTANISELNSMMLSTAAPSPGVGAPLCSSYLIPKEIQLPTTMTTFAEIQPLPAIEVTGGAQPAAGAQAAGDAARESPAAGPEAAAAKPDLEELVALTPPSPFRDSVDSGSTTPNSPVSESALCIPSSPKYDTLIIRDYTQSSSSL
row,SMILES,Emax [%]
1,"Cc1nc(N2CCn3nc(OCc4ccccc4)cc3C2=O)ccc1F [Example B17, 2-(benzyloxy)-5-(5-fluoro-6-methylpyridin-2-yl)-6,7-dihydropyrazolo[1,5-a]pyrazin-4(5H)-one]",55
2,O=C1c2cc(OCc3ccccc3)nn2CCN1c1ccccn1 [Example B11],25
3,"CN(C)c1cccc(N2CCn3nc(OCc4ccccc4)cc3C2=O)n1 [Example B15, 2-(benzyloxy)-5-(6-(dimethylamino)pyridin-2-yl)-6,7-dihydropyrazolo[1,5-a]pyrazin-4(5H)-one]",61
4,O=C1c2cc(OCc3ccccc3)nn2CCN1c1ccccc1F [Example B6],44
5,"O=C1c2cc(OCc3ccccc3F)nn2CCN1c1ccc(F)cc1 [Example B4, 2-[(2-fluorobenzyl)oxy]-5-(4-fluorophenyl)-6,7-dihydropyrazolo[1,5-a]pyrazin-4(5H)-one]",63
6,Cc1cc(N2CCn3nc(OCc4ccccc4)cc3C2=O)ccc1F [Example B7],47
7,"CC1CN(c2ccc(F)cc2)C(=O)c2cc(OCc3ccccc3)nn21 (single isomer, unassigned) [Example B10]",53
8,O=C1c2cc(OCc3ccccc3)nn2CCN1c1cccnc1 [Example B12],17
9,Cc1cc(N2CCn3nc(OCc4ccccc4)cc3C2=O)ncc1F [Example B18],45

# The remaining lines, values ahead:
row,Emax [%],SMILES
1,55,COc1nc(N2CCn3nc(OCc4ccccc4)cc3C2=O)ncc1F [Example B21]
2,36,O=C1c2cc(OCc3ccccc3)nn2CCN1Cc1ccccc1 [Example B59]
3,43,Cc1cncc(N2CCn3nc(OCc4ccccc4)cc3C2=O)n1 [Example B22]
4,52,COc1cccc(F)c1CN1CCn2nc(OCc3ccccc3)cc2C1=O [Example B70]
5,45,"O=C1c2cc(OCc3cccc(F)c3)nn2CCN1c1ccc(F)cc1 [Example B26, 2-((3-fluorobenzyl)oxy)-5-(4-fluorophenyl)-6,7-dihydropyrazolo[1,5-a]pyrazin-4(5H)-one]"
6,48,Cc1cccc(N2CCCn3nc(OCc4ccccc4)cc3C2=O)n1 [Example B52]
7,42,"COc1c(Cl)cccc1CN1CCn2nc(OCc3ccccc3)cc2C1=O [Example B57, 2-(benzyloxy)-5-(3-chloro-2-methoxybenzyl)-6,7-dihydropyrazolo[1,5-a]pyrazin-4(5H)-one]"
8,28,COc1ccc(COc2cc3n(n2)CCN(c2ccc(F)cc2)C3=O)cc1 [Example B30]

# Same assay, conditions: H10H cell line; potentiation in presence of glutamate EC20; concentration in mol/L
row,SMILES,EC50 [µM]
1,"Cc1nc(N2CCn3nc(OCc4ccccc4)cc3C2=O)ccc1F [Example B17, 2-(benzyloxy)-5-(5-fluoro-6-methylpyridin-2-yl)-6,7-dihydropyrazolo[1,5-a]pyrazin-4(5H)-one]",0.123
2,O=C1c2cc(OCc3ccccc3)nn2CCN1c1ccccn1 [Example B11],> 10
3,"CN(C)c1cccc(N2CCn3nc(OCc4ccccc4)cc3C2=O)n1 [Example B15, 2-(benzyloxy)-5-(6-(dimethylamino)pyridin-2-yl)-6,7-dihydropyrazolo[1,5-a]pyrazin-4(5H)-one]",0.0257
4,O=C1c2cc(OCc3ccccc3)nn2CCN1c1ccccc1F [Example B6],0.229
5,"O=C1c2cc(OCc3ccccc3F)nn2CCN1c1ccc(F)cc1 [Example B4, 2-[(2-fluorobenzyl)oxy]-5-(4-fluorophenyl)-6,7-dihydropyrazolo[1,5-a]pyrazin-4(5H)-one]",0.141
6,Cc1cc(N2CCn3nc(OCc4ccccc4)cc3C2=O)ccc1F [Example B7],0.102
7,"CC1CN(c2ccc(F)cc2)C(=O)c2cc(OCc3ccccc3)nn21 (single isomer, unassigned) [Example B10]",0.174
8,O=C1c2cc(OCc3ccccc3)nn2CCN1c1cccnc1 [Example B12],> 30.2
9,Cc1cc(N2CCn3nc(OCc4ccccc4)cc3C2=O)ncc1F [Example B18],0.339

# Now from value to compound:
row,EC50 [µM],SMILES
1,0.251,COc1nc(N2CCn3nc(OCc4ccccc4)cc3C2=O)ncc1F [Example B21]
2,0.0871,O=C1c2cc(OCc3ccccc3)nn2CCN1Cc1ccccc1 [Example B59]
3,0.708,Cc1cncc(N2CCn3nc(OCc4ccccc4)cc3C2=O)n1 [Example B22]
4,0.427,COc1cccc(F)c1CN1CCn2nc(OCc3ccccc3)cc2C1=O [Example B70]
5,0.0955,"O=C1c2cc(OCc3cccc(F)c3)nn2CCN1c1ccc(F)cc1 [Example B26, 2-((3-fluorobenzyl)oxy)-5-(4-fluorophenyl)-6,7-dihydropyrazolo[1,5-a]pyrazin-4(5H)-one]"
6,0.269,Cc1cccc(N2CCCn3nc(OCc4ccccc4)cc3C2=O)n1 [Example B52]
7,0.0759,"COc1c(Cl)cccc1CN1CCn2nc(OCc3ccccc3)cc2C1=O [Example B57, 2-(benzyloxy)-5-(3-chloro-2-methoxybenzyl)-6,7-dihydropyrazolo[1,5-a]pyrazin-4(5H)-one]"
8,> 30.2,COc1ccc(COc2cc3n(n2)CCN(c2ccc(F)cc2)C3=O)cc1 [Example B30]

# System: not given
# Test: not given
# Details: not given
row,SMILES,melting point [°C]
1,"Cc1nc(N2CCn3nc(OCc4ccccc4)cc3C2=O)ccc1F [Example B17, 2-(benzyloxy)-5-(5-fluoro-6-methylpyridin-2-yl)-6,7-dihydropyrazolo[1,5-a]pyrazin-4(5H)-one]",167.1
2,O=C1c2cc(OCc3ccccc3)nn2CCN1c1ccccn1 [Example B11],153.5
3,"CN(C)c1cccc(N2CCn3nc(OCc4ccccc4)cc3C2=O)n1 [Example B15, 2-(benzyloxy)-5-(6-(dimethylamino)pyridin-2-yl)-6,7-dihydropyrazolo[1,5-a]pyrazin-4(5H)-one]",115.3
4,O=C1c2cc(OCc3ccccc3)nn2CCN1c1ccccc1F [Example B6],151.9
5,"O=C1c2cc(OCc3ccccc3F)nn2CCN1c1ccc(F)cc1 [Example B4, 2-[(2-fluorobenzyl)oxy]-5-(4-fluorophenyl)-6,7-dihydropyrazolo[1,5-a]pyrazin-4(5H)-one]",119
6,Cc1cc(N2CCn3nc(OCc4ccccc4)cc3C2=O)ccc1F [Example B7],209.8
7,"CC1CN(c2ccc(F)cc2)C(=O)c2cc(OCc3ccccc3)nn21 (single isomer, unassigned) [Example B10]",134.8
8,O=C1c2cc(OCc3ccccc3)nn2CCN1c1cccnc1 [Example B12],147.8
9,Cc1cc(N2CCn3nc(OCc4ccccc4)cc3C2=O)ncc1F [Example B18],145.2

# Second part, the compound after the results:
row,melting point [°C],SMILES
1,223,COc1nc(N2CCn3nc(OCc4ccccc4)cc3C2=O)ncc1F [Example B21]
2,103.8,O=C1c2cc(OCc3ccccc3)nn2CCN1Cc1ccccc1 [Example B59]
3,215.2,Cc1cncc(N2CCn3nc(OCc4ccccc4)cc3C2=O)n1 [Example B22]
4,162.2,COc1cccc(F)c1CN1CCn2nc(OCc3ccccc3)cc2C1=O [Example B70]
5,116.4,"O=C1c2cc(OCc3cccc(F)c3)nn2CCN1c1ccc(F)cc1 [Example B26, 2-((3-fluorobenzyl)oxy)-5-(4-fluorophenyl)-6,7-dihydropyrazolo[1,5-a]pyrazin-4(5H)-one]"
6,142.2 to 142.3,Cc1cccc(N2CCCn3nc(OCc4ccccc4)cc3C2=O)n1 [Example B52]
7,232.7,"COc1c(Cl)cccc1CN1CCn2nc(OCc3ccccc3)cc2C1=O [Example B57, 2-(benzyloxy)-5-(3-chloro-2-methoxybenzyl)-6,7-dihydropyrazolo[1,5-a]pyrazin-4(5H)-one]"
8,164.6,COc1ccc(COc2cc3n(n2)CCN(c2ccc(F)cc2)C3=O)cc1 [Example B30]

# From patent US8901125B2, “Substituted bicyclic alkoxy pyrazole analogs as allosteric modulators of mGluR5 receptors” (Vanderbilt University, priority 2012, dated 2014)
